Source: BindingDB's records for doi:10.1021/jm020889p (2002)

Legend:
[1] = target: Sigma non-opioid intracellular receptor 1 (Cavia porcellus) (UniProt Q60492); assay: Ability to displace [3H](+)-pentazocine from Sigma opioid receptor type 1 of guinea pig brain
[2] = target: Sigma-2 receptor (TMEM97) (Rattus norvegicus); assay: Ability to displace [3H]ditolylguanidine in the presence of 100 nM (+)-pentazocine from Sigma opioid receptor type 2 of rat liver

Sigma non-opioid intracellular receptor 1 (Cavia porcellus), sequence (Q60492 whole entry, looked up): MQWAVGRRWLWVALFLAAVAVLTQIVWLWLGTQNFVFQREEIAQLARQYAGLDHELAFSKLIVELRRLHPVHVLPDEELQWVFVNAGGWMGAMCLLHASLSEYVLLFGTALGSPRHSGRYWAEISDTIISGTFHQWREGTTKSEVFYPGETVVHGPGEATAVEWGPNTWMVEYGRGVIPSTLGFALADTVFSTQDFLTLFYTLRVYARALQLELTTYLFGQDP

| Structure (SMILES) | Ki [1] [nM] | Ki [2] [nM] |
| --- | --- | --- |
| CCOC(=O)CC1OC2(CCN(Cc3ccccc3)CC2)c2ccccc21 (configuration not stated) [ethyl 2-[1'-benzylspiro[1,3-dihydroisobenzofuran-1,4'-(hexahydropyridine)]-3-yl]acetate] | 15.1 | 6770 |
| CNC(=O)CC1Cc2ccccc2C2(CCN(Cc3ccccc3)CC2)O1 (configuration not stated) [1N-methyl-2-[1'-benzylspiro[3,4-dihydro-1H-isochromene-1,4'-(hexahydropyridine)]-3-yl]acetamide] | 170 | – |
| N#CCC1OC2(CCN(Cc3ccccc3)CC2)c2ccccc21 (configuration not stated) [1'-benzylspiro[1,3-dihydroisobenzofuran-1,4'-(hexahydropyridine)]-3-ylmethyl cyanide] | 2.16 | 1660 |
| O=CCC1Cc2ccccc2C2(CCN(Cc3ccccc3)CC2)O1 (configuration not stated) [2-[1'-benzylspiro[3,4-dihydro-1H-isochromene-1,4'-(hexahydropyridine)]-3-yl]acetaldehyde] | 55.1 | 9910 |
| N#CC1OC2(CCN(Cc3ccccc3)CC2)c2ccccc21 (configuration not stated) [1'-benzylspiro[1,3-dihydroisobenzofuran-1,4'-(hexahydropyridine)]-3-carbonitrile] | 2.18 | – |
| CCOC(=O)C1OC2(CCN(Cc3ccccc3)CC2)c2ccccc21 (configuration not stated) [ethyl 1'-benzylspiro[1,3-dihydroisobenzofuran-1,4'-(hexahydropyridine)]-3-carboxylate] | 8.95 | 7130 |
| CCOC(=O)C1Cc2ccccc2C2(CCN(Cc3ccccc3)CC2)O1 (configuration not stated) [ethyl 1'-benzylspiro[3,4-dihydro-1H-isochromene-1,4'-(hexahydropyridine)]-3-carboxylate] | 9.33 | 10500 |
| OCC1Cc2ccccc2C2(CCN(Cc3ccccc3)CC2)O1 (configuration not stated) [1'-benzylspiro[3,4-dihydro-1H-isochromene-1,4'-(hexahydropyridine)]-3-ylmethanol] | 7.16 | 2090 |
| N#CCC1Cc2ccccc2C2(CCN(Cc3ccccc3)CC2)O1 (configuration not stated) [1'-benzylspiro[3,4-dihydro-1H-isochromene-1,4'-(hexahydropyridine)]-3-ylmethyl cyanide] | 15.9 | 4700 |
| CNCCC1Cc2ccccc2C2(CCN(Cc3ccccc3)CC2)O1 (configuration not stated) [1N-methyl-2-[1'-benzylspiro[3,4-dihydro-1H-isochromene-1,4'-(hexahydropyridine)]-3-yl]-1-ethanamine] | 148 | 4360 |
| CCOC(=O)CC1Cc2ccccc2C2(CCN(Cc3ccccc3)CC2)O1 (configuration not stated) [ethyl 2-[1'-benzylspiro[3,4-dihydro-1H-isochromene-1,4'-(hexahydropyridine)]-3-yl]acetate] | 183 | 22700 |
| OCCC1Cc2ccccc2C2(CCN(Cc3ccccc3)CC2)O1 (configuration not stated) [2-[1'-benzylspiro[3,4-dihydro-1H-isochromene-1,4'-(hexahydropyridine)]-3-yl]-1-ethanol] | 12.7 | 8460 |
